# Measured values taken from US9365830B2, “Agents and methods for inhibiting human pluripotent stem cell growth” (VIACYTE, INC., priority 2010, dated 2016).
# Read-outs that look alike come from different tables or passages of the source.
# Assays:
# Format in all cases: cell-based, human
# NPCs = test: Secondary screen, lowest effective dose on NPCs; conditions: lowest concentration that elicited cytotoxicity, range 0.1 to 50 μM, read-out: ED NPC (lowest effective dose)
# Description: In addition, the complete LOPAC1280™ collection was also screened for effects on neural progenitor cells (NPCs) that were derived from the hESCs. Neural progenitors were plated in serum-free MedII conditioned medium at 6×10^4 cells/well and fed daily. Two days after plating, 10 μM of each compound was added and the cells were cultured for an additional 2 days. […] Reduced crystal violet staining was indicative of lower proportions of NPCs. See circled wells in FIG. 7B. The left and right columns of the LOPAC1280™ plates from which the compounds were dispensed were empty and served as untreated controls. […] See Table 6 below listing the name and class of activity of each candidate compound identified in this screen (except chelerythrine chloride, which is listed in Table 5). ChCl was not included in the subsequent round of screening. Therefore only 40 compounds were tested further.
# (§1) Using a range of different concentrations from 0.1 to 50 μM, the forty compounds in Table 6 were re-screened (secondary screen) using hESCS and NPCs. The effective dose (ED) was defined as the lowest concentration of a compound that elicited cytotoxicity during the secondary screen. […] The darker wells were indicative of the increased numbers or percentages of proliferating or growing pluripotent stem cells in the wells. In addition, these 40 compounds were screened on differentiating definitive endoderm (DE) cell cultures in 96-well plate impedance assays (described above) to determine which of these compounds were not cytotoxic to definitive endoderm cells at the lowest effective dose on either hESC or NPC. […] See “ACEA DE” column in Table 6.
# hESCs = test: Secondary screen, lowest effective dose on hESCs; conditions: lowest concentration that elicited cytotoxicity, range 0.1 to 50 μM, read-out: ED hESC (lowest effective dose)
# Description: To expand the number of potential candidate hESC cytotoxic and inhibitory compounds, the complete LOPAC1280™ collection (containing 1,280 compounds) was screened. In the primary screen, cytotoxicity was tested on undifferentiated hESCs (about 3×10^4 BG01 cells) in 16 standard 96-well trays, in DC-HAIF defined medium on growth factor-reduced MATRIGEL™ diluted 1:200, which were fed daily (FIG. 7A). 10 μM of each compound was added to the hESCs one day after plating, and the cells were cultured for an additional 2 days. Plates were then fixed and stained for alkaline phosphatase (AP) to identify relative decreases in proliferation or growth of hESCs (as reduced AP staining), indicative of lower proportions of hESCs. See the circled wells in FIG. 7A.
# as §1
# [1] = test system: hESC suspension aggregate cultures, Stages 1-4 (pancreatic endoderm); test: Q-PCR marker gene expression, suspension aggregate cultures differentiated through Stages 1-4; conditions: for PDX1 and NKX6.1 gene expression: Stages 2, 3 and 4, compared to the Controls
# Description: FIGS. 5A-5M. are bar graphs showing the relative gene expression levels of markers expressed in pluripotent cells or in cells of pancreatic lineage: OCT4 (FIG. 5A), MIXL (FIG. 5B), EOMES (FIG. 5C), CXCR4 (FIG. 5D), SOX17 (FIG. 5E), HNF1B (FIG. 5F), HNF4A (FIG. 5G), PDX1 (FIG. 5H), PTF1A (FIG. 5I), NKX2.2. (FIG. 5J), NGN3 (FIG. 5K), NKX6.1 (FIG. 5L) and PAX4 (FIG. 5M) with treatment of candidate selective cytotoxic agents from the LOPAC1280™ sublibrary (Table 4) to suspension aggregate cell cultures at Stages 1-4. Expression levels are normalized to the average expression levels of housekeeping genes. The graphs depict fold regulation compared to hESC sample. Ch.Cl=chelerythrine chloride; Deph.=dephostatin; AG=AG 490; SU=SU6656.
# FIGS. 6A-6F are bar graphs showing the relative gene expression levels of markers of non-pancreatic lineage cells: SOX1 (FIG. 6A; e.g., at least observed in extraembryonic and neural cellss), ZIC1 (FIG. 6B; e.g., at least observed in early neural cells), PAX6 (FIG. 6C; e.g., at least observed in neural ectoderm cells), SOX7 (FIG. 6D; e.g., at least observed in extraembryonic cells), AFP (FIG. 6E; e.g., at least observed in liver cell and extraembryonic cells) and CDX2 (FIG. 6F; e.g., at least observed in extraembryonic cells) in compound-treated differentiations.
# Effects of Candidate Inhibitor/Cytotoxic Agents in Suspension Aggregate Culture. The ideal inhibitor candidate for cell therapy would be compatible with pancreatic cell lineage viability in a manufacturing scale-up process (e.g. a suspension aggregate culture that could be propagated in a large bioreactor), as well as in small-scale cell culture, such as in 96-well plates or 6-well trays. Thus, an additional screen included conditions similar to those in a commercial-scale process. […] The remaining 4 compounds, chelerythrine chloride (Ch.Cl; Cmpd. No. 25), tyrphostin AG 490 (AG; Cmpd. No. 152), dephostatin (Deph; Cmpd. No. 48), and SU 6656 (SU; Cmpd. No. 126) were screened for selective inhibition of pluripotent stem cell growth in a suspension aggregate type culture, which is amenable to manufacturing scale-up process. Briefly, Human ESCs were aggregated in rotational culture and differentiated through Stages 1-4 to make pancreatic endoderm substantially as described in U.S. patent application Ser. No. 11/838,054, entitled COMPOSITIONS AND METHODS USEFUL FOR CULTURING DIFFERENTIABLE CELLS, filed Aug. 13, 2007; and U.S. patent application Ser. No. 12/264,760, entitled STEM CELL AGGREGATE SUSPENSION COMPOSITIONS AND METHODS OF DIFFERENTIATION THEREOF, filed Nov. 4, 2008, which are herein incorporated by reference in their entirety. RNA samples were collected from control and compound-treated cell cultures at various time points during the differentiation as above, for analysis by Q-PCR. FIGS. 5A-5M show the expression of markers characteristic of pluripotent stem cells or at least one of Stages 1-5. FIGS. 6A-6F show the expression of markers not normally expressed in pluripotent stem cells or Stages 1-5. Each graph includes 5 sections: QPCR samples were normalized to day 0 (hESC), which is the “Control” section farthest left on each graph of FIGS. 5A-5M; the other four sections to the right of the Control section correspond to the four compounds used to treat the cells (chelerythrine chloride (Ch.Cl; Cmpd. No. 25); tyrphostin AG 490 (AG490; Cmpd. No. 152), dephostatin (Deph; Cmpd. No. 48), and SU 6656 (SU6656; Cmpd. No. 126) left to right, respectively).
Compound,minimal effective concentration (NPCs),minimal effective concentration (hESCs),"differentiation of non-pancreatic lineage cells, or “off-target” cells ([1]; FIGS. 6A-6F)",PDX1 and NKX6.1 gene expression [1],"minimal effective concentration (NPCs; Homo sapiens, 48 h)",CDX2 gene expression (non-pancreatic marker) ([1]; FIG. 6F),minimal effective concentration (hESCs; Homo sapiens),AFP gene expression (non-pancreatic marker) ([1]; FIG. 6E)
"22, 23-dihydroavermectin B1a+22,23-dihydroavermectin B1b [Ivermectin]",>50 µM,5 µM,,,,,,
CN(N=O)c1cc(O)ccc1O [Dephostatin],,,do not promote,increased,,,,
CN(C)S(=O)(=O)c1ccc2c(c1)/C(=C/c1cc3c([nH]1)CCCC3)C(=O)N2 [SU 6656],,,,increased,> 50 µM,elevated,25 µM,
N#C/C(=C\c1ccc(O)c(O)c1)C(=O)NCc1ccccc1 [Tyrphostin AG 490],10 µM,25 µM,,reduced,,,,elevated
